Key:
GSK-3β [1] = target: T1, GSK-3β (Homo sapiens, UniProt P49841); experiment: MicroScale Thermophoresis (MST) binding to fluorescently labeled GSK-3β; parameters: made in house; host or cells: Sf9 cells; details: for MST binding check, displacement assay: preincubation with 3 mM AMP-PNP, data not shown
Method: MicroScale Thermophoresis (MST) experiments were conducted in triplicate on a Monolith NT.115 Pico system (NanoTemper Technologies, Munich, Germany).
The MST technique was used both for hit binding and for affinity (kd) determination.
GSK-3β was labeled with the His-tag RED-tris-NTA label 2nd generation (Nanotemper Technologies) following Nanotemper technology protocol. The 100 nM stock labeled protein solution was used at 20 nM concentration to roughly start from 7000 fluorescence counts in each screening experiment.
GSK-3β was labelled also using RED-NHS ammine dye (Nanotemper Technologies) following the manufacturer’s protocol. The obtained ammine-labeled protein was used at 20 nM concentration to roughly start the experiments from 6000 fluorescence counts.
Binding tests were performed on eight capillaries with a constant concentration of the labeled protein (20 nM), to detect the effect induced by the compounds on the fluorescence signal (in the presence or absence of 3 mM AMP-PNP). Protein in assay buffer in the presence of 5% DMSO was the negative control.
Assay buffer: Phosphate buffer 0.1 M pH 7.2, 5 mM MgCl2, 0.001% Tween80, 0.1% PEG8000. Experiments were performed in triplicates. Data elaboration and plots were performed using MO.Control Nanotemper software.

LOK1 = target: T2, LOK1 (Homo sapiens, UniProt O94804); experiment: Eurofins Kinase Diversity Panel, LOK1; type: biochemical; details: 20 µM compound; ATP at Km ± 15 µM; read-out: inhibitory effect on LOK1
T2 construct: purchased Eurofins (Kinase Diversity Panel service)
Method: (§1) To further characterize the inhibitory activity of the two selected fragments, the selectivity of G5 and G12 towards a panel of 58 kinases of the humane proteome was evaluated using the “Kinase screening and profiling” service of Eurofins, Luxembourg (Kinase Diversity Panel). […] Results are reported in Supplementary Figures S2 and S3.

AMPK1α = target: T3, AMPK1α (Homo sapiens, UniProt Q13131); experiment: Eurofins Kinase Diversity Panel, AMPK1α; type: biochemical; details: 20 µM compound; ATP at Km ± 15 µM
T3 construct: purchased Eurofins (Kinase Diversity Panel service)
Method: as §1

GSK-3β [2] = target: T1, GSK-3β; experiment: LANCE Ultra TR-FRET GSK-3β kinase inhibition assay (ULight-GS phosphorylation); type: biochemical; details: 1 µM ATP, 50 nM ULight-GS; for inhibition at 1 µM: 1 μM compound; for inhibition at 1 µM / inhibition at 5 µM / inhibition at 50 µM / inhibition at 100 µM: mean ± SD; for inhibition at 5 µM: 5 μM compound; for inhibition at 50 µM: 50 μM compound; for inhibition at 100 µM: 100 μM compound; for IC50: dose-response 30 nM to 200 μM
Method: To assess if the identified GSK-3β binders were also able to affect kinase activity, the inhibitory activity of the four identified hit compounds was tested at four concentrations (1-5-50-100 μM) using the LANCE® Ultra (Perkin Elmer, Waltham, MA, USA) time-resolved fluorescence resonance energy transfer (TR-FRET) assay. The assay measures the ability of GSK-3β to phosphorylate a specific substrate, human Muscle Glycogen Synthase (ULight-GS ([…]/pSer657)), in the presence and absence of the identified ligands. […] Specifically, IC50 values were (14.81 ± 0.55) μM and (15.25 ± 1.34) μ[…] and G12, respectively (Figure 5). The GSK-3β kinase assay was run in 384 well microplates (OptiPlate^TM-384, White, Perkin Elmer) with a total reaction volume of 20 μL. The inhibitory potency against human recombinant GSK-3β was evaluated using the LANCE® Ultra (Perkin Elmer) time-resolved fluorescence resonance energy transfer (TR-FRET) by measuring the phosphorylation of the specific substrate, human Muscle Glycogen Synthase (ULight-GS ([…]/pSer657)), according to the manufacturer's instructions. […] The reaction was initiated by adding 50 nM of the substrate ULight-[…] and 1 μM ATP. The mixture was incubated for 1 h at 23 °C. Afterward, the reaction was stopped by adding 8 mM EDTA. After 5 min, the anti-phospho-GS antibody labeled with europium chelate was added. 1 h later, the kinase reaction was monitored by irradiation at 320 nm, and the fluorescence was measured at 615 and 665 nm, using EnVision 2014 Multilabel Reader (PerkinElmer). The calculated signal ratio at 665/615 nm was proportional to the extent of ULight-GS phosphorylation. The compounds were screened at four concentrations (1-5-50-100 μM). For selected compounds, dose-response curves, ranging from 30 nM up to 200 μM, were performed. Dose-response curves were run in three independent experiments, each performed in three technical replicates. IC50 values (concentrations causing half-maximal response or enzyme inhibition) were determined by non-linear regression analysis of the Log [concentration]/response curves generated with mean replicate values using a four parameter Hill equation curve fitting with GraphPad Prism 8 (GraphPad Software Inc., San Diego, CA, USA).

MEK1 = target: T4, MEK1 (Homo sapiens, UniProt Q02750); experiment: Eurofins Kinase Diversity Panel, MEK1; type: biochemical; details: 20 µM compound; ATP at Km ± 15 µM
T4 construct: purchased Eurofins (Kinase Diversity Panel service)
Method: as §1

CDKs = experiment: Eurofins Kinase Diversity Panel, CDKs; type: biochemical, human; details: 20 µM compound; ATP at Km ± 15 µM
Method: as §1

CDK9 = target: T5, CDK9 (Homo sapiens, UniProt P50750); experiment: Eurofins Kinase Diversity Panel, CDK9; type: biochemical; details: 20 µM compound; ATP at Km ± 15 µM; read-out: inhibitory effect on CDK9
T5 construct: purchased Eurofins (Kinase Diversity Panel service)
Method: as §1

ABL = target: T6, ABL (Homo sapiens, UniProt P00519); experiment: Eurofins Kinase Diversity Panel, ABL; type: biochemical; details: 20 µM compound; ATP at Km ± 15 µM
T6 construct: purchased Eurofins (Kinase Diversity Panel service)
Method: as §1

MLK1 = target: T7, MLK1 (Homo sapiens, UniProt P80192); experiment: Eurofins Kinase Diversity Panel, MLK1; type: biochemical; details: 20 µM compound; ATP at Km ± 15 µM
T7 construct: purchased Eurofins (Kinase Diversity Panel service)
Method: as §1

TAK1 = target: T8, TAK1 (Homo sapiens, UniProt O43318); experiment: Eurofins Kinase Diversity Panel, TAK1; type: biochemical; details: 20 µM compound; ATP at Km ± 15 µM; read-out: inhibitory effect on TAK1
T8 construct: purchased Eurofins (Kinase Diversity Panel service)
T8 sequence (O43318 1-303 limits assumed): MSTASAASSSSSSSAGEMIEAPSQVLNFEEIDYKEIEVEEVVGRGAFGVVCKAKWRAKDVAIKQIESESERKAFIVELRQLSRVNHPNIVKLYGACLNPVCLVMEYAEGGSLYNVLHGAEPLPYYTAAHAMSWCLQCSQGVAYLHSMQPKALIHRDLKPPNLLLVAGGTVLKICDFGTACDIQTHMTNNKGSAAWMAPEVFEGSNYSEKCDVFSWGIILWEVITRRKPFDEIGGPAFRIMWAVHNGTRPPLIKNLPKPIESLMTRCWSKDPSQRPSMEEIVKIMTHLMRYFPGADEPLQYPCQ
Method: as §1

T1 sequence (P49841 whole entry): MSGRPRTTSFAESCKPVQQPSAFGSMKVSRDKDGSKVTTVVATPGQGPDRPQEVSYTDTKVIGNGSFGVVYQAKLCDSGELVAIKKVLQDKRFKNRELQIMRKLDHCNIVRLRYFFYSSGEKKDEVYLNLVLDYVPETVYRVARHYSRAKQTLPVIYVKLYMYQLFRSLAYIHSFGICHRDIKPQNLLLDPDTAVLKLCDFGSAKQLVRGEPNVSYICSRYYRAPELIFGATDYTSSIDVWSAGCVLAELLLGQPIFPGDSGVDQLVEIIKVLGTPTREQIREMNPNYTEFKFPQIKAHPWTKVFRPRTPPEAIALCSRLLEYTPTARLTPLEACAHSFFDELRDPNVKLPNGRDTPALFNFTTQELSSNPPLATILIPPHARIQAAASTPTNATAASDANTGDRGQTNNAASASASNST
T7 sequence (P80192 whole entry): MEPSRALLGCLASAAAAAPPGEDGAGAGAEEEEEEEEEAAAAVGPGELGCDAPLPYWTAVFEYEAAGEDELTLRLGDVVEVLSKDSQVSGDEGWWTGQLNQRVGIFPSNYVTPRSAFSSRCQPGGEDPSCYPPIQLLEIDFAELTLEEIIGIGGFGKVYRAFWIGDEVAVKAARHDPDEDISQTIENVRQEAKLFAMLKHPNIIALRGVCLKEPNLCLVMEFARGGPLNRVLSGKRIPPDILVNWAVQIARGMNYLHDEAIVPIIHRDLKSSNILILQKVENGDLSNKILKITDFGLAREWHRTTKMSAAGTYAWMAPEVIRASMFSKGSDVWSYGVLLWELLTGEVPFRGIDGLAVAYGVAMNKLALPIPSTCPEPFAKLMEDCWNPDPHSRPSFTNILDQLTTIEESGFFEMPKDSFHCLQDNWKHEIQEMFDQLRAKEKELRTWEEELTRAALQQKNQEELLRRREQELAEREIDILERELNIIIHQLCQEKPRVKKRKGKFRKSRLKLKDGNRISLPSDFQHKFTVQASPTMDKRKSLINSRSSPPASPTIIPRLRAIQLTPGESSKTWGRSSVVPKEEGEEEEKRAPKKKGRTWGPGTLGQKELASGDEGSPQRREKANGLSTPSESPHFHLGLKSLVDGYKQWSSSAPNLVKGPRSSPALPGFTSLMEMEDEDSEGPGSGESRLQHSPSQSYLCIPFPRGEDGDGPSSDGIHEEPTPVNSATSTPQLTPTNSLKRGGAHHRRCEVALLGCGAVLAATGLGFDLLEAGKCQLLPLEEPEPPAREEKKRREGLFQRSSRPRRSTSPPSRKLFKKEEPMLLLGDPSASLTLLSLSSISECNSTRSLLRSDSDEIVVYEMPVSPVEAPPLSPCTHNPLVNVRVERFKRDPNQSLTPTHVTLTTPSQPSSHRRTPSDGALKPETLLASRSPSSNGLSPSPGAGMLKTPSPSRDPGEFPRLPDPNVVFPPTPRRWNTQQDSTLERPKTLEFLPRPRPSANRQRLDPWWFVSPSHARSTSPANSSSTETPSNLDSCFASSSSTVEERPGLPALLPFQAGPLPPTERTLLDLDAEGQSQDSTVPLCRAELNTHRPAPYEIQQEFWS
T5 sequence (P50750 whole entry): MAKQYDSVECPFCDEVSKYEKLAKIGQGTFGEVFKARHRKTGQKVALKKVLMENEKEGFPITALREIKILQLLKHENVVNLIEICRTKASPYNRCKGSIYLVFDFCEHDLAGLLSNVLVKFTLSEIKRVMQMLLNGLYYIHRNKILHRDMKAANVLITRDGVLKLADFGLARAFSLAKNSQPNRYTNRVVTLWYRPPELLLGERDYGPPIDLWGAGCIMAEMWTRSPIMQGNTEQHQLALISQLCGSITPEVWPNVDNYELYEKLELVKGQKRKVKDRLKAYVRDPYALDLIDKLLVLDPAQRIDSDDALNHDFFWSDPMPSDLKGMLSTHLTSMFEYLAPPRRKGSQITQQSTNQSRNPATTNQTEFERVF
T5 sequence (O60563 whole entry partner): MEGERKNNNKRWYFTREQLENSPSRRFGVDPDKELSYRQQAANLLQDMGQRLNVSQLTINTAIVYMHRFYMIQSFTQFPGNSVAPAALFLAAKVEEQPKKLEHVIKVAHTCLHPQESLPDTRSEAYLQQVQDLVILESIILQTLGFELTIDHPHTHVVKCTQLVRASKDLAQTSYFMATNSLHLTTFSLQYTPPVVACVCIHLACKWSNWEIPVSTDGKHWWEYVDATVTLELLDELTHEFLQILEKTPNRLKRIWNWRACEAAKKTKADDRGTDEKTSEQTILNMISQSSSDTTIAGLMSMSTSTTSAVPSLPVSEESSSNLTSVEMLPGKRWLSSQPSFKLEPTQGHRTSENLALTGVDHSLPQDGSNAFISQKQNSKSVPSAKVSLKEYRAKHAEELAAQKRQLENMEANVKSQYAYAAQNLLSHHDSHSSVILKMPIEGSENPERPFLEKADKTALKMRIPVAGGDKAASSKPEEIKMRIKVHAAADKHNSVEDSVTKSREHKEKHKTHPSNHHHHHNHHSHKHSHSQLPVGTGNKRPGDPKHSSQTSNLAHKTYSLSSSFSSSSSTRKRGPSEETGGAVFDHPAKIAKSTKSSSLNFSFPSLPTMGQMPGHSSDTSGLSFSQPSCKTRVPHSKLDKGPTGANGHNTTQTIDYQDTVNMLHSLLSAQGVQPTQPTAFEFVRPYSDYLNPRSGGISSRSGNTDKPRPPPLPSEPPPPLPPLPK
T3 sequence (Q13131 whole entry): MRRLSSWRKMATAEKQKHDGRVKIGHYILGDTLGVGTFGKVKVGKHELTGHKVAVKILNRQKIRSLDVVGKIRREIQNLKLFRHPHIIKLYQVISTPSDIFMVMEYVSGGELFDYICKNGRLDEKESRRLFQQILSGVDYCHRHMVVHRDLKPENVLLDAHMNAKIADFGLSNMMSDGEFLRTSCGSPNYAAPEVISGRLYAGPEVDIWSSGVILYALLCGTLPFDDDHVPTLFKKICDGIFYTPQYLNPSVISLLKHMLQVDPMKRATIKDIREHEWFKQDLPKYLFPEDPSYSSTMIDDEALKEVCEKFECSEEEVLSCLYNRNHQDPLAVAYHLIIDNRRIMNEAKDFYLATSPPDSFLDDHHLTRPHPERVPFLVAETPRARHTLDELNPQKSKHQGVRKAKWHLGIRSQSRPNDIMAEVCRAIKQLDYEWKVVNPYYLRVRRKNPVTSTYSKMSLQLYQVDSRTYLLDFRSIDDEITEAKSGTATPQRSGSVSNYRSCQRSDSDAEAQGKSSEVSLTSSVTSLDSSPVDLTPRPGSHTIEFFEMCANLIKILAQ
T3 sequence (Q9Y478 whole entry partner): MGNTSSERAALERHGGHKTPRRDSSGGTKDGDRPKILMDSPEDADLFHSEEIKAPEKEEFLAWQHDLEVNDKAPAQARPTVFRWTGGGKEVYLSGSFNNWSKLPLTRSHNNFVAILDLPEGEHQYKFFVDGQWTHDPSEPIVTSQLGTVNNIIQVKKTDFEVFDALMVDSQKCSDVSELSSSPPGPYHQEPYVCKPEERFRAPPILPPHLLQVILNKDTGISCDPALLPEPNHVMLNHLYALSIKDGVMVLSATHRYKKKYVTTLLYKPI
T3 sequence (P54619 whole entry partner): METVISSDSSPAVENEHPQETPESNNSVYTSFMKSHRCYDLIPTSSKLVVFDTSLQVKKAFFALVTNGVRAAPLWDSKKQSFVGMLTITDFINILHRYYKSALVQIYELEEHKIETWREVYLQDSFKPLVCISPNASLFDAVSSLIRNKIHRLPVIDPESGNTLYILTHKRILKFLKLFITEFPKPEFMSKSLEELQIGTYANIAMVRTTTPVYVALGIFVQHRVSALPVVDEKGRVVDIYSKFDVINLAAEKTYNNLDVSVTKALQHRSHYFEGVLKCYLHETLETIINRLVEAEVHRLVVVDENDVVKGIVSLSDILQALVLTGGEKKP
T6 sequence (P00519 whole entry): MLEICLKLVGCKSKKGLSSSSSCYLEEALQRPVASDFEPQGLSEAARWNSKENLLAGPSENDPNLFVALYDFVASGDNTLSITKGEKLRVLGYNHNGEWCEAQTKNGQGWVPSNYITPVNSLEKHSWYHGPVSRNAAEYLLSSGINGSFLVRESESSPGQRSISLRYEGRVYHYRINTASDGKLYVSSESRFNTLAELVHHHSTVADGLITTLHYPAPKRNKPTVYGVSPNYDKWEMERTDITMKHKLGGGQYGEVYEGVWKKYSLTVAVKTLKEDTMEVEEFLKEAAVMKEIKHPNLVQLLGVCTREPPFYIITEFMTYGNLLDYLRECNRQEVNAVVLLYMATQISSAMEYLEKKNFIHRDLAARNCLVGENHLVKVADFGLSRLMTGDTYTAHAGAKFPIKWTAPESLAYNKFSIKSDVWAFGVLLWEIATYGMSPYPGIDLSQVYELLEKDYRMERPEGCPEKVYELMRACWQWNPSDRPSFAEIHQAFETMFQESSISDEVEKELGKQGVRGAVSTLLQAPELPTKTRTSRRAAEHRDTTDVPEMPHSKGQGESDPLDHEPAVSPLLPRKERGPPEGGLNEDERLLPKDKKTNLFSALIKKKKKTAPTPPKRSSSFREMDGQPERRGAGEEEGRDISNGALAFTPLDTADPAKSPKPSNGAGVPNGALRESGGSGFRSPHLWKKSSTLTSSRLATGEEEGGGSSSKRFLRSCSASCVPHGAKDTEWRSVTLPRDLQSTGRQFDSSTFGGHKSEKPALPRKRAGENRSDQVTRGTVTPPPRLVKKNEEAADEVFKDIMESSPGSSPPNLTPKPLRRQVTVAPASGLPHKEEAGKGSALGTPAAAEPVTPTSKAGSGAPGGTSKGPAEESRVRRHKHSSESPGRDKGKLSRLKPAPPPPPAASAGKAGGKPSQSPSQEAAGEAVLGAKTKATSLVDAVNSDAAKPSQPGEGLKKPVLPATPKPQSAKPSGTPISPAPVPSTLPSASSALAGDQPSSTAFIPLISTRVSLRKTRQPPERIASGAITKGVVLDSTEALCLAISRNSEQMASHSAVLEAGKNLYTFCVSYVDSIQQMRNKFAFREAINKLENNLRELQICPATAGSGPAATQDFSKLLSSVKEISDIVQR

CS(=O)(=O)N1CC(c2nc(N)ncc2-c2ccc(F)cc2)C1 [G5]
MST binding check, displacement assay (GSK-3β [1]): maintained their ability to bind GSK-3β
inhibition at 20 µM (LOK1): 21%
inhibitory effect on AMPK1α (AMPK1α): only marginally affected
inhibition at 1 µM (GSK-3β [2]): 0.3 ± 0.1%
inhibition at 5 µM (GSK-3β [2]): 13.4 ± 2%
inhibition at 50 µM (GSK-3β [2]): 69.4 ± 2%
inhibition at 100 µM (GSK-3β [2]): > 80%
IC50 (GSK-3β [2]): 14.8 ± 0.55 µM
inhibitory effect on MEK1 (MEK1): only marginally affected
inhibitory activity on CDKs (CDKs): did not show any evident inhibitory activity

O=C(Nc1ccccn1)C1CCN(C(=O)CCc2ccccc2F)C1 (stereo not drawn) [G12]
Kd (GSK-3β [1]; complete binding curve, average of three experiments ± SD, read-out: affinity parameter (kd), MST): 66.5 ± 31.8 µM
MST binding check, displacement assay (GSK-3β [1]): maintained their ability to bind GSK-3β
inhibition at 20 µM (CDK9): 50%
inhibitory effect on ABL (ABL): no inhibitory effect
inhibitory effect on MLK1 (MLK1): no inhibition
inhibition at 1 µM (GSK-3β [2]): 8.5 ± 0.1%
inhibition at 5 µM (GSK-3β [2]): 15.2 ± 2.7%
inhibition at 50 µM (GSK-3β [2]): 71.4 ± 1.7%
inhibition at 100 µM (GSK-3β [2]): > 80%
IC50 (GSK-3β [2]): 15.2 ± 1.34 µM
inhibition at 20 µM (TAK1): 20%

— paper PMC8998611, “Identification of Novel GSK-3β Hits Using Competitive Biophysical Assays” (International Journal of Molecular Sciences, 2022)
